The record followed here is patent publication US5874461A, “Use of Nebivolol as an anti-atherogenic” (priority 1995, dated 1999).

Where two headings read alike, the source gives them in different places. Some results are limits rather than exact numbers.

The subject of one experiment is human LDL. Briefly: In vitro oxidation of human LDL (Cu-induced conjugated diene formation at 234 nm). It is filed as biochemical. As for the experimental part: In vitro oxidation of human LDL Human venous blood was collected on EDTA (2.68 mM final concentration). Plasma was isolated by centrifugation. NaBr (37.3 mg/ml) was added and solubulized (final density 1.036 g/ml). Centrifuge tubes were first filled to a level corresponding to 2/3 of their maximal volume, further filled with a NaBr solution of 1.036 g/ml and then centrifuged for 18 hours at 45000 rpm in a 50 Ti rotor (Beckmann). After centrifugation, floating lipoproteins were discarded. The remaining solution was adjusted to a density of 1.055 g/ml. Filling of the centrifuge tubes and centrifugation were repeated as described above. After centrifugation, floating LDL was dialysed against a buffer containing 127 mM NaCl, 8 mM Na2 HPO4.2H2 O, 2.7 mM KCl and 1.47 mM KH2 PO4 at pH 7.4. After dialysis, LDL was filtered though a Millipore filter (0.45 μM) and protein content was determined. A dilution of 25 μg/ml was prepared with a millipored dialysis buffer. Oxidation was determined in a Pharmacia Ultraspec III spectrophotometer. Conjugated diene formation was registered at 234 nm. Two μl of a drug or solvent (DMSO) were added to Eppendorf tubes followed by 1 ml of LDL (25 μg/ml) and these substances were gently mixed and centrifuged for 1 min at 13000 g. The solution was pipetted in a Quartz cuvet that was thermostatised in the spectrophotometer at 37° C. After equilibration, the oxidation reaction was started by the addition of CuSO4 (final concentration 10 μM). Absorbance was measured every 3 minutes during the time course of the experiment. The absorbance at 234 nm was divided into three phases: a lag phase, a propagation phase and a decomposition phase (FIG. 1). The lag phase was defined as the intercept with the baseline of the tangent of the slope of the absorbance curve of the propagation phase. The rate of oxidation was defined as the tangent of the slope. Tmax was defined as the time required to attain the maximum absorbance between the propagation and the decomposition phase. The absorbance at tmax minus the absorbance at to was taken as an indicator of the total amount of dienes formed. To verify the reproducibility of the assay, a reference LDL sample was prepared and kept in darkness under nitrogen at 4° C. This reference sample was included in every oxidation experiment. LDL was isolated from 23 subjects. Plasma cholesterol ranged from 156 to 278 mg/dl (mean 213 mg/dl), triglycerides ranged from 47 to 328 mg/dl (mean 191 mg/dl) and phospholipids ranged from 178 to 327 mg/dl (mean 231 mg/dl).

In the next experiment the test system is C6 glioma cells. Put plainly: Protection of C6 glioma cells from glutathione depletion-mediated oxidative stress (toxicity, LDH assay). The experiment is classed as cell-based. Conditions: data not shown. From the text:
Competitive inhibition by glutamate of cystine uptake in certain cells leads to glutathione depletion and oxidative stress. This oxidative stress model has been described for glial C6 glioma cells (Kato et al., 1992. A mechanism for glutamate toxicity in the C6 glioma cells involving inhibition of cystine uptake leading to glutathione depletion. Neurosci. 48:903-914) and for the neuronal cell line N18RE105 (Murphy et al., 1989. Glutamate toxicity in a neuronal cell line involves inhibition of cystine transport leading to oxidative stress. Neuron 2:1547-1558).
Cell culture: The C6 glioma cell line (American Type Culture Collection, CCL 107) was cultivated in DMEM supplemented with 2 or 4 mM glutamine, 1 mM pyruvate and 5 or 10% heat-inactivated foetal calf serum. Cultures were maintained at 37° C. in an air/5~10% CO2, water saturated atmosphere.
Glutathione depletion and evaluation of drugs as antioxidants: Experiments were carried out with cultures plated at 30,000~50,000 cells/cm^2 in 24-well culture plates (for toxicity and lipid peroxide measurements) or at 136,000 cells/cm^2 in 96-well culture plates (for GSH determination). After 8-24 hr, the cultures were switched to culture medium in the absence or presence of the cystine uptake inhibitor glutamate at a final concentration of 10 mM. In order to test drugs for inhibition of oxidative stress, the drug was added together with glutamate (final concentration of solvent was 0.01% hydroxypropyl-β-cylodextrin, 0.1% DMSO). Intracellular glutathione levels were measured after 6~8 hr, lipid peroxides were measured after 14~20 hr, and toxicity and protection were analysed after 48 hr using an LDH assay according to the method of Bergmeyer and Bernt (UV-assay with pyruvate and NADH. In: Methods of Enzymatic Analysis. 1974. H. U. Bergmeyer, ed. Acad. Press, New York, 2nd Ed., pp 574-579).

The test system of experiment [1] is primary embryonic hippocampal cultures. Put plainly: In vitro neuroprotection against nitric oxide and superoxide radicals (inhibition of LDH release). It is filed as cell-based, rats. Particulars: for inhibition at 1 µM / inhibition at 0.1 µM: Rattus norvegicus, read-out: % neuroprotection, mean ± SD; for inhibition at 1 µM: 10^-6 M; for inhibition at 0.1 µM: 10^-7 M. As for the experimental part:
Primary embryonic hippocampal cultures were prepared essentially as described previously (Pauwels et al., Van Aschouw, H. P., Peeters, L., Moeremans, M., Leysen, J. E. (1992) Chronic treatment with sabeluzole protects cultured rat brain neurons from the neurotoxic effects of excitatory amino acids. Synapse, 12:271-280). Hippocampal formations of rats at embryonic day 17 were dissected and dissociated in 0.05% trypsin, 0.1 mg/ml DNase I in DMEM (Dulbecco Modified Eagle Medium). Heat-inactivated horse serum (HS) was added to a concentration of 4%, and the cells were centrifuged, washed with DMEM, and resuspended in DMEM/Ham's F12 (3:1) containing 10% HS. The cells were plated at a density of 4×10^5 cells/cm^2 in poly L-lysine (0.001%) precoated multiwell-24 plates. On day 1 in culture, the medium was changed to chemically defined CDM-R12 medium (DMEM-HEPES/Ham's F12 (3:1) containing 0.26% bovine serum albumin, 30 nM sodium selenite, 3 nM 3,3',5 triiodo-L-thyronine, 0.35 μM retinol, 0.3 μM retinol acetate, 2.3 μM DL-a-tocopherol, 2.1 μM DL-a-tocopherol acetate, 3.6 μM linolenic acid, 3.6 μM linoleic acid, 0.125% human transferrin, […], 57.7 nM corticosterone, 49 U/I insulin, 0.4 μM biotin, 10 μM L-carnitine, 83 μM D(+)-galactose, 3.3 μM glutathione, 10 μM ethanolamine, 0.1 mM putrescine; Romijn, H. J., van Huizen, F., Wolters, P. S. (1984) Towards an improved serum-free, chemically defined medium for long-term culturing of cerebral cortex tissue. Neurosci. Behav. Rev., 8:301-334). Acute and prolonged pretreatment of the, cultures was essentially as described previously (Pauwels et al., 1992). Drugs were dissolved, and diluted in 10% or 1% hydroxypropyl-β-cyclodextrin such that the final concentrations of the solvent in the acute and chronic exposures were 0.1% and 0.01% respectively. Compound A as used in the following examples is [(RRSR)+(RRRS)+(SSSR) +(SSRS)]-α-[[[2-(chroman-2-yl)-2-hydroxy-ethyl]amino]methyl]-6-hydroxy-2-chromanmethanol ethanedioate (1:1).
For acute treatment, drug, or solvent was added to the cultures on day 7. After 20 min the medium was replaced with 200 μl chemically defined DMEM medium (the same composition of CDM-R12 medium but without Ham's F12) (control), or chemically defined DMEM medium containing the oxidative stress trigger. Oxidative stress triggers used were 1 mM sodium nitroprusside (SNP, a nitric oxide radical generating compound), or 7.5-10 mM diethyldithiocarbamate (DDTC, a superoxide dismutase inhibitor) and the test compound.
For prolonged pretreatment experiments, drug (concentration range 0.1 nM-10 μM) was added to the serum-free medium on days 1 and 4 of the culture. On day 7, the cultures were washed once with DMEM, and incubated with 0.2 ml chemically defined DMEM medium for 2 h at 37° C. The cells were washed and the medium was replaced by 0.2 ml chemically defined DMEM medium (control), or chemically defined DMEM medium containing the oxidative stress trigger (se above).
For both the acute experiment and the prolonged pretreatment experiment, extracellular and intracellular LDH (lactate dehydrogenase) activities were measured spectrophotometrically at 340 nm with an EPOS Analyzer 5060, according to the method of Bergmeyer (Bergmeyer, H. U. (1974) Biochemical reagents. In: Methods of Enzymatic Analysis. H. U. Bergmeyer, eds. Academic Press, New York, 2nd Ed., pp. […]). Extracellular LDH activity in the culture medium and cytoplasmic LDH activity measured after lysis of the cells in 1 ml H2 O, were used to calculate total LDH activity and % released LDH. % Neuroprotection refers to % inhibition of LDH release, where oxidative stress trigger-induced LDH release is defined as 0% protection, and basal (control) level of LDH release is defined as 100% protection.
Neuronal primary hippocampal cultures were grown in CDM-R12 medium for 7 days. Test compounds were either administered on days 1 and 4 of culture (prolonged pretreatment) or on day 7 of culture (acute treament). […]
Background: LDH leaks from cells whose membrane has failed.

Setting [2] is: DDTC trigger, prolonged pretreatment.
[3] abbreviates: SNP trigger, prolonged pretreatment.

Turning to `Oc1ccc2c(c1)CCC(C(O)CNCC(O)C1CCc3cc(O)ccc3O1)O2` (stereo not drawn) [[(SRSR)+(SRRS)+(RSSR)] -α,α'-iminobis(methylene)bis[6-hydroxy-2-chromanmethanol]], in the experiment with human LDL (2 μM, FIG. 2), the Tmax result is recorded as “increased”, the lag time result is “increased” and the rate of oxidation result is given as “decreased”.

As for `C[C@]12N[C@H](Cc3ccccc31)c1ccccc12` [MK801, reference compound], the “cytoplasmic LDH release (glutamate toxicity)” value with C6 glioma cells is on record as “not prevented”.

As to `Cc1c(C)c2c(c(C)c1O)CCC(C)(CCCC(C)CCCC(C)CCCC(C)C)O2` (stereo not drawn) [vitamin E, α-tocopherol, reference compound], in the experiment on human LDL (20 μM vitamin E, compared with 2 μM hydroxymetabolites of nebivolol), the Tmax result was “close to the tmax for the 2 μM hydroxymetabolites of nebivolol”. Further, the anti-oxidant effect result in the experiment with human LDL (concentration lower than 10 μM (results not shown)) was “did not show any anti-oxidant effect”. In the experiment on human LDL (in vitro), the “antioxidative effect on human LDL” value is listed as “delay the oxidation of LDL”. Also, in the experiment with human LDL (vitamin E), the initial absorbance result is on record as “not affected”, the rate of oxidation result is “not affected” and the total amount dienes result was “not affected”.

On to `COc1ccccc1OCCNCC(O)COc1cccc2[nH]c3ccccc3c12` (stereo not shown) [carvedilol, reference compound], for which the inhibition at 1 µM in experiment [1] (DDTC trigger, acute treatment) was < 25%; in experiment [1] (setting [2]) it was < 25%; in experiment [1] (SNP trigger, acute treatment), < 25%; in experiment [1] (setting [3]) it was < 25%. The inhibition at 0.1 µM in experiment [1] (DDTC trigger, acute treatment) is < 25%; in experiment [1] (setting [2]), < 25%; in experiment [1] (SNP trigger, acute treatment) it was < 25%; in experiment [1] (setting [3]) it was < 25%. For the same compound, the “neuroprotection against DDTC or SNP” value in experiment [1] (one or the other treatment paradigm) is listed as “not observed”.

Consider `Oc1ccc2c(c1)CCC(C(O)CNCC(O)C1CCc3ccccc3O1)O2` (stereo not drawn) [[(RSSS)+(RSRR)+(SRSS)+(SRRR)]-α-[[[2-(chroman-2-yl)-2-hydroxyethyl]amino]-methyl]-6-hydroxy-2-chroman-methanol ethanedioate (1:1)], for which, in the experiment on human LDL (2 μM, FIG. 2), the Tmax result is listed as “increased”, the lag time result is “increased” and the rate of oxidation entry is listed as “decreased”.
